PMC7013880, “Synthesis of Spin-Labelled Bergamottin: A Potent CYP3A4 Inhibitor with Antiproliferative Activity” (International Journal of Molecular Sciences, 2020)

Experiments:
CYP2C9 = CYP2C9 (Homo sapiens, UniProt P11712)
Method: (§2) Stock solutions of BM, SL-BM, and positive controls (each 5000 μM) were prepared in dimethyl sulfoxide (Fluka) and stored at –20 °C. The inhibitory effects of BM and SL-BM on the CYP2C9, 2C19, and 3A4 enzymes were examined using CypExpress^TM assay kits by employing diclofenac, S-mephenytoin, and testosterone substrates, respectively.
(§3) The substrates and products were analyzed using the HPLC system comprising a pump (Waters 510; Milford, MA, USA), an injector (Rheodyne 7125) with a 20 μL sample loop, and a UV detector (Waters 486). The data were evaluated by employing Millennium Chromatographic Manager software (Waters). HPLC analyses of diclofenac and 4′-hydroxydiclofenac (CYP2C9 assay) [39, 40], S-mephenytoin, and 4-hydroxymephenytoin [42] as well as testosterone and 6β-hydroxytestosterone (CYP3A4 assay) [41] were performed as described previously.
(§4) Data were derived from at least three independent experiments and represented as the mean ± the standard error of the mean (SEM) values. The statistical significance (p < 0.05 and p < 0.01) was established by employing a one-way ANOVA test (IBS SPSS Statistics, v. 21; Armonk, NY, USA). The metabolite formation (% of control) was plotted as a function of the logarithmic concentrations, and then the IC50 values were determined using GraphPad Prism 8 software (San Diego, CA, USA).

HeLa cells = assay: WST-1 cell viability assay, HeLa cells; type: cell-based; settings: HeLa human cervix carcinoma cells, 24 h treatment
Method: (§1) Murine embryonic fibroblast NIH3T3 cells were maintained in DMEM (Cat No. 043-30085, Wako Pure Chemical, Osaka, Japan) supplemented with 10% newborn calf serum (NBCS) at 37 °C and 5% CO2. Human cervix carcinoma HeLa cells were maintained in DMEM supplemented with 10% fetal bovine serum at 37 °C and 5% CO2. To determine the toxicity of BM and SL-BM, the WST-1 cell viability assay was employed as described previously. The cells (NIH3T3: 2000 per well; HeLa: 5000 per well) were seeded into all the wells of 96-well plates. After 24 h, the medium was replaced, and the cells were treated with the test compounds for 24 h. Then, the cells were incubated with a WST-1 solution (3.6 µg/µL WST-1, 70 ng/µL 1-methoxy phenazine methosulfate in 20 mM 4-(2-hydroxyethyl)-1-piperazineethanesufonic acid–KOH (pH 7.4); Dojindo, Kumamoto, Japan) for 1 h at 37 °C, and the absorbance of each well was recorded at 440 nm using a Multiskan FC microplate reader (Thermo Fisher Scientific).

NIH3T3 cells = assay: WST-1 cell viability assay, NIH3T3 fibroblasts; type: cell-based; settings: Mus musculus, NIH3T3 murine embryonic fibroblasts, 24 h treatment
Method: as §1

CYP2C19 = CYP2C19 (Homo sapiens, UniProt P33261); assay: CYP2C19 inhibition assay (CypExpress 2C19 kit, S-mephenytoin substrate, HPLC); settings: relative to BM
Chain of CYP2C19 (P33261 whole entry): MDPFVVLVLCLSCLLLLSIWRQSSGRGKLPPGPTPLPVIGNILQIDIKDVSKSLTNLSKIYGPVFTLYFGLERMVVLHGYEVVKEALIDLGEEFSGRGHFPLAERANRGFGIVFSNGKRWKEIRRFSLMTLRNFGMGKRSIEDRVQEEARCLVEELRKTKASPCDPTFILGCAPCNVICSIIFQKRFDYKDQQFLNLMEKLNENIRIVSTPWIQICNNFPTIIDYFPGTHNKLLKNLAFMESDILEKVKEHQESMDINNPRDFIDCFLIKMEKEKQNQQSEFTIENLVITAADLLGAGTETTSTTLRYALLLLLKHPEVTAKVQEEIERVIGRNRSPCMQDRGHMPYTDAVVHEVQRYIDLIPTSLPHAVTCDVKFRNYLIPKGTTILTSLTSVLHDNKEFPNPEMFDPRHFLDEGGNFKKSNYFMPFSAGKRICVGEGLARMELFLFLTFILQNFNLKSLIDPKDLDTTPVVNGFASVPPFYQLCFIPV
Method: as §2, §3, §4

Chain of CYP2C9 (P11712 whole entry): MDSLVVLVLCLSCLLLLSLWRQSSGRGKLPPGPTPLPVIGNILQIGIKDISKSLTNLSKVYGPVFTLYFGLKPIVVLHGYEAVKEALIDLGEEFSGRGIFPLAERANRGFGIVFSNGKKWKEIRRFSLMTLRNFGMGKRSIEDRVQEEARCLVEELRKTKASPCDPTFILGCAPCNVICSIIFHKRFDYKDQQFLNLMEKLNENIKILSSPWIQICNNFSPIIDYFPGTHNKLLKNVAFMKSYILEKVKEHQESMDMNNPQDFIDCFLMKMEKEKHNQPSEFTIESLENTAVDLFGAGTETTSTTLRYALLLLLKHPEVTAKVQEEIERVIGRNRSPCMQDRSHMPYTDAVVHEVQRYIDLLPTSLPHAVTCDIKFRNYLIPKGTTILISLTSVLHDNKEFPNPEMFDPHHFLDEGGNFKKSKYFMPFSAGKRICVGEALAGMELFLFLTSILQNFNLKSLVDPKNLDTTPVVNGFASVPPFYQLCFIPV

| Structure (SMILES) | IC50(rel): IC50 of the inhibitor divided by the substrate concentration (CYP2C9) | α: IC50 of the inhibitor divided by the IC50 value of the positive control (CYP2C9) | IC50 (HeLa cells) [µM] | IC50 (NIH3T3 cells) [µM] | melting point [°C] | fold weaker inhibitor of CYP2C19 than BM (CYP2C19) [fold] |
| --- | --- | --- | --- | --- | --- | --- |
| CC(=O)CC(c1ccccc1)c1c(O)c2ccccc2oc1=O (centres unmarked) [Warfarin, warfarin] | 1.96 | 1.00 |  |  |  |  |
| CC(C)=CCC/C(C)=C/COc1c2ccoc2cc2oc(=O)ccc12 [Bergamottin, 5-geranoxypsoralen] |  |  | > 50 | > 50 |  |  |
| C/C(=C\COc1c2ccoc2cc2oc(=O)ccc12)CCC=C1CC(C)(C)N([O])C(C)(C)C1 [SL-Bergamottin] |  |  | 17.3 | > 50 | 51 to 53 | ~15 |
